Assays:
[1] = Circulating half-life and concentration in mice; type: in vivo
Procedure: (§1) Rapamycin was formulated for in vivo administration by dissolution in equal parts of N,N-dimethylacetamide and a 9:1 (v:v) mixture of polyethylene glycol (average molecular weight of 400) and polyoxyethylene sorbitan monooleate. Concentrations of rapamycin, in the completed formulation, were sufficient to allow for in vivo administration of the appropriate dose in a 2.0 ml/kg injection volume. The accuracy of the dosing solutions was confirmed by HPLC analysis prior to intravenous administration into the tail veins. Some control mice, bearing no transfected HT1080 cells, received 10.0 mg/kg rapamycin. In addition, other control mice, bearing transfected cells, received only the rapamycin vehicle.
To examine the kinetics of rapamycin control of hGH production, we treated animals with a single dose of rapamycin and then measured hGH levels at different times thereafter. […] The slower decay of serum hGH relative to rapamycin could reflect the presence of higher tissue concentrations of rapamycin in the vicinity of the implanted cells. Alternatively, persistence of hGH production from the engineered cells may be enhanced by the stability of hGH mRNA.
Therefore, to ascertain the ability of this system to elevate and maintain circulating hGH concentrations, we performed an experiment in which animals received multiple doses of rapamycin at 16-hour intervals. This interval corresponds to the time required for hGH levels to peak and then decline approximately half-way. According to this regimen, rapamycin concentration is predicted to approach a steady-state trough concentration of 1.7 μg/ml after two doses. hGH levels should also approach a steady state trough concentration following the second dose. […] In particular, it is apparent that protein production is rapidly terminated upon withdrawal of drug.

[2] = system: SEAP target gene in HT1080 cells; assay: Rapamycin-dependent transcriptional activation in transiently transfected cells (ZFHD1-3FKBP + 1FRB-p65 fusions, SEAP); type: cell-based, human
Procedure: SEAP production was not detected in cells in which one or both of the transcription factor fusion plasmids was omitted, nor was it detected in the absence of added rapamycin. When all components were present, however, SEAP secretion was detectable at rapamycin concentrations as low as 0.5 nM. […] Similar results have been obtained when the same transcription factors were used to drive rapamycin-dependent activation of an hGH reporter gene or a stably integrated version of the SEAP reporter gene made by infection with a retroviral vector. It is difficult to determine the fold activation in response to rapamycin since levels of SEAP secretion in the absence of drug are undetectable, but it is clear that in this system there is at least a 1000-fold enhancement over background levels in the absence of rapamycin.
HT1080 cells (ATCC CCL-121), derived from a human fibrosarcoma, were grown in MEM supplemented with non-essential amino acids and 10% Fetal Bovine Serum. Cells plated in 24-well dishes (Falcon, 6×10^4 cells/well) were transfected using Lipofectamine under conditions recommended by the manufacturer (GIBCO/BRL). A total of 300 ng of the following DNA was transfected into each well: 100 ng ZFHD×12-CMV-SEAP reporter gene, 2.5 ng pCGNN-ZFHD1-3FKBP or other DNA binding domain fusion, 5 ng pCGNN-1FRB-p65(361-550) or other activation domain fusion and 192.5 ng pUC118. In cases where the DNA binding domain or activation domain were omitted an equivalent amount of empty pCGNN expression vector was substituted. Following lipofection (for 5 hours) 500 μl medium containing the indicated amounts of rapamycin was added to each well. After 24 hours, medium was removed and assayed for SEAP activity as described (Spencer et al, Science 262:1019-24, 1993) using a Luminescence Spectrometer (Perkin Elmer) at 350 nm excitation and 450 nm emission. Background SEAP activity, measured from mock-transfected cells, was subtracted from each value.

[3] = system: SEAP target gene in stably transfected HT1080 cells; assay: Rapamycin-dependent SEAP production in stably transfected cell clone; type: cell-based, human; settings: stable clone, 100 nM rapamycin, SEAP assay length increased about 50-fold
Excerpt: We generated stable cell lines by sequential transfection of a SEAP target gene and expression vectors for ZFHD1-3FKBP and 1FRB-p65, respectively. […] From this pool, we characterized several individual clones, many of which produced high levels of SEAP in response to rapamycin. […] In an attempt to rigorously quantitate background SEAP production and induction ratio in this clone, we performed a second set of assays in which the length of the SEAP assay was increased by a factor of approximately 50 to detect any SEAP activity in untreated cells. Under these conditions, mock transfected cells produced 47 arbitrary fluorescence units, while the transfected clone produced 54 units in the absence of rapamycin and over 90,000 units at 100 nM rapamycin. […]
To simplify the task of stable transfection, we used a bicistronic expression vector that directs the production of both ZFHD1-3FKBP and 1FRB-p65 through the use of an internal ribosome entry sequence (IRES). […] All 12 clones analyzed were inducible and had little or no basal activity. […]
HT20-6 cells, which contain the pLH-ZHWT×12-IL2-SEAP reporter gene, ZFHD1-3FKBP DNA binding domain and 1FRB-p65(361-550) activation domain stably integrated, were generated by first infecting HT1080L cells with SMTN-ZFHD1-3FKBP-packaged retrovirus and selecting in medium containing […] G418. […] Eight positive clones were analyzed by addition of rapamycin. […]

[4] = system: hGH reporter gene in transplanted transfected HT1080 cells; assay: Rapamycin-dependent production of hGH in mice bearing transfected HT1080 cells; type: in vivo
Procedure: To prepare transiently transfected HT1080 cells for injection into mice (See below), cells in 100 mm dishes (2×10^6 cells/dish) were transfected by calcium phosphate precipitation for 16 hours (Gatz, C., Kaiser, A. & Wendenburg, R. , 1991,Mol. Gen. Genet. 227, 229-237) with the following DNAs: […] of ZHWT×12-CMV-hGH, […] pCGNN-ZFHD1-3FKBP, […] pCGNN-1FRB-p65(361-550) and […] pUC118. Transfected cells were rinsed 2 times with phosphate buffered saline (PBS) and given fresh medium for 5 hours. To harvest for injection, cells were removed from the dish in Hepes Buffered Saline Solution containing 10 mM EDTA, washed with PBS/0.1% BSA/0.1% glucose and resuspended in the same at a concentration of 2×10^7 cells/ml.
In Vivo Methods: Animals, husbandry, and general procedures. Male nu/nu mice were obtained from Charles River Laboratories (Wilmington, Mass.) and allowed to acclimate for five days prior to experimentation. They were housed under sterile conditions, were allowed free access to sterile food and sterile water throughout the entire experiment, and were handled with sterile techniques throughout.
To transplant transiently transfected cells into mice, 2×10^6 transfected HT1080 cells, were suspended in […] PBS/0.1% BSA/0.1% glucose buffer, and administered into four intramuscular sites (approximately […] per site) on the haunches and flanks of the animals. Control mice received equivalent volume injections of buffer alone.
as §1
Blood was collected by either anesthetizing or sacrificing mice via CO2 inhalation. Anesthetized mice were used to collect […] of blood by cardiac puncture. The mice were revived and allowed to recover for subsequent blood collections. Sacrificed mice were immediately exsanguinated. Blood samples were allowed to clot for 24 hours, at 4° C., and sera were collected following centrifugation at 1000×g for 15 minutes. Serum hGH was measured by the Boehringer Mannheim non-isotopic sandwich ELISA (Cat No. 1 585 878). […] Absorbance was read at 405 nm with a 490 nm reference wavelength on a Molecular Devices microtiter plate reader. […]

[5] = five i.v. 10.0 mg/kg doses at 16-hour intervals

predicted steady-state trough concentration of rapamycin ([1]; after two doses, 10.0 mg/kg i.v. at 16-hour intervals) | half-life ([1]; nu/nu, mouse, in vivo, iv, in these animals (mice), i.v., read-out: half-life of rapamycin (converted)) | Compound | half-life of hGH clearance from the circulation ([1]; in these animals (mice)) | enhancement of SEAP over background levels in the absence of rapamycin [2] | rapamycin concentration of peak SEAP secretion ([2]; 24 hours) | lowest rapamycin concentration at which SEAP secretion was detectable ([2]; all components present, 24 hours) | SEAP production [3] | half-life of hGH decline after the final rapamycin dose [4, 5] | time hGH levels remained constant after the final dose [4, 5] | half-life of decay of serum hGH concentration from its peak ([4]; single i.v. dose 10.0 mg/kg) | time after treatment at which serum hGH remained detectable ([4]; single i.v. dose 10.0 mg/kg)
– | – | hGH: human growth hormone, reporter gene product secreted by engineered cells | less than four | – | – | – | – | – | – | – | –
1.7 µg/mL | 4.6 h | CO[C@H]1C[C@@H]2CC[C@@H](C)[C@@](O)(O2)C(=O)C(=O)N2CCCC[C@H]2C(=O)O[C@H]([C@H](C)C[C@@H]2CC[C@@H](O)[C@H](OC)C2)CC(=O)[C@H](C)/C=C(\C)[C@@H](O)[C@@H](OC)C(=O)[C@H](C)C[C@H](C)/C=C/C=C/C=C/1C [rapamycin] | – | ≥ 1000 fold | 5 nM | 0.5 nM | over 90,000 arbitrary fluorescence units | 6.8 h | 16 h | approximately 11 hours | 42 h
